Test results taken from PMC9949698, “Visible-Light-Controlled Histone Deacetylase Inhibitors for Targeted Cancer Therapy” (Journal of Medicinal Chemistry, 2023).
Read-outs that look alike come from different tables or passages of the source.

Assays:
[1] = UV–vis spectra and optimal isomerization wavelengths; assay type: physicochemical
Description: Ultraviolet–visible (UV–vis) spectra were recorded using a Tecan Spark 20M Multimode Microplate reader. Samples (200 μL of compound solution/well) were prepared at […] in DMSO. Samples were measured between 300 and 800 nm with 2 nm fixed intervals in 96-well transparent plates. Illumination at different wavelengths was performed for 2 min using 96-well LED array plates (LEDA Teleopto) placed below the samples. […] Potencies were measured using a Thorlabs PM100D power energy meter connected with a standard photodiode power sensor (S120VC).

[2] = biological target: T1, human recombinant HDAC1 (Homo sapiens, UniProt Q13547); test: Fluorogenic assay with human recombinant HDAC1, dark or illumination; assay type: biochemical; conditions: for IC50: 1 h at room temperature (Table 2)
T1 construct: purchased BPS Bioscience
T1 sequence (Q13547 whole entry): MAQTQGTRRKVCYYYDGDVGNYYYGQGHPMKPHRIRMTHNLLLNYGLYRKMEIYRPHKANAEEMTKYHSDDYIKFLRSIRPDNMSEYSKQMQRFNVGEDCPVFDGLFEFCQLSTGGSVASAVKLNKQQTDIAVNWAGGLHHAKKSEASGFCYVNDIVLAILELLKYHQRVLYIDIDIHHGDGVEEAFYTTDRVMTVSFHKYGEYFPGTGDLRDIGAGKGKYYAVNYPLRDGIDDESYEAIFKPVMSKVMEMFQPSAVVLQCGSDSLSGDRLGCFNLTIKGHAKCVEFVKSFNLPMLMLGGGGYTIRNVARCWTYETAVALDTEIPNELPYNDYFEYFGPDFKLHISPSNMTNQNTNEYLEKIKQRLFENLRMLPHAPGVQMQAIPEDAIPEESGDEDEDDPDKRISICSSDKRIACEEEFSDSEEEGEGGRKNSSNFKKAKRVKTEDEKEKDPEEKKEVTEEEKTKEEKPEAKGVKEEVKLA
Description: To study the inhibition of HDAC enzymes by the compounds, we used a fluorogenic assay with human recombinant HDAC1.[32] The enzyme was incubated with an acetylated substrate and each inhibitor for 1 h at room temperature, under either dark or light conditions. We opted for illumination throughout the incubation period to maintain the maximum proportion of cis under light conditions. […] Then, the deacetylated substrate generated a fluorescent coumarin after incubation of the mixture with trypsin at 37 °C for 20 min.
Stock solutions of the compounds were diluted to 1 mM in DMSO and then heated to 60 or 80 °C to obtain solutions with the maximum amount of the trans isomer (dark). […] The 1 mM solutions were then serially diluted with HDAC buffer to 10 times the desired concentration, maintaining DMSO at 10%.
In control wells without the compound, inhibitor, or enzyme, HDAC buffer was added instead. […] Then, 50 μL of the stop solution was added and the plates were incubated at 37 °C for 20 min in the dark. Fluorescence was measured at a λem of 460 nm and a λex of 380 nm. Enzyme activity is expressed as a percentage with respect to the nontreated cells, after subtracting the blank (well with no enzyme and no compound).

[3] = E/Z composition under light or temperature conditions by HPLC; assay type: physicochemical; conditions: HPLC at isosbestic point (310–338 nm)
[4] = cited from earlier work
[5] = biological target: T1, human recombinant HDAC1; test: Fluorogenic assay with human recombinant HDAC1, dark or illumination; assay type: biochemical; conditions: enzyme incubated 6 h with or without preillumination, activity assessed every hour
[6] = tested on: HeLa cells; test: HeLa cell viability, MTS assay, dark or preillumination; assay type: cell-based; conditions: for IC50: Homo sapiens, HeLa
Description: We then proceeded to evaluate the effect of the compounds in a viability assay against HeLa cells.
HeLa, MCF7, and HT29 cells were maintained in adherent cultures in DMEM supplemented with 10% FBS. KG1 cells were maintained in a suspension culture in IMDM supplemented with 20% FBS.
Stock solutions of the compounds were heated to 60 or 80 °C to obtain solutions with the maximum amount of the trans isomer (dark). […] The solutions were then serially diluted with DMEM to give 20 times the desired final concentration, maintaining DMSO at 10%.
Cells were seeded in 96-well black flat bottom plates with a clear bottom at a density of 5 × 10^3 cells/well (HeLa) or 1 × 10^4 cells/well (MCF7, HT29, and KG1), in a volume of 95 μL.
Viability of HeLa, MCF7, and […] cells was determined with a CellTiter 96 assay (Promega), according to the manufacturer’s instructions. Briefly, 20 μL of CellTiter 96 reagent was added to each well, the plates were incubated at 37 °C for 2 h, and the absorbance at 490 nm was recorded. Viability is expressed as a percentage with respect to the nontreated cells.

[7] = UV–vis at 25–50 μM in DMSO, Teleopto plates (Table 1)

- λcis (optimal wavelength trans to cis) [1, 7]: 380 nm
- λtrans (optimal wavelength cis to trans) [1, 7]: 550 nm
- λmax trans ([1]; UV–vis spectra at 25–50 μM in DMSO (Table 1)): 378 nm
- IC50(dark)/IC50(light) ([2]; dark vs 365 or 380 nm (Table 2), fold): 18
- IC50 ([2]; dark, read-out: IC50 dark): 960 nM
- IC50 ([2]; illumination 365 or 380 nm, read-out: IC50 light): 52 nM
- % cis at λcis ([3]; 100 μM in DMSO after illumination with λcis (Table 1)): 78%
- % trans at λtrans ([3]; 100 μM in DMSO after illumination with λtrans (Table 1)): 85%
- difference in activity between dark and illuminated conditions over incubation time [5]: maintained over time
- IC50 ([6]; dark, 48 h, read-out: IC50 dark (concentration that reduces cell viability by half)): ~12 µM
- IC50 ([6]; preillumination 380 nm, 48 h, read-out: IC50 light (concentration that reduces cell viability by half)): ~12 µM
- IC50 ([6]; supplementary CSV, read-out: HeLa MTS IC50 dark): 12 µM
- IC50 ([6]; supplementary CSV, read-out: HeLa MTS IC50 light): 12 µM
- IC50(dark)/IC50(light) ([6]; Table 5): ≈1
Compound: COc1ccc(/N=N/c2ccc(/C=C/C(=O)NO)cc2)cc1 [Compound 1, reference compound]
- wavelength of isomerization [4]: 365 nm
- t1/2 (relaxation) ([4]; room temperature in buffer): 4.2 h
